# pIC50, pKi: −log10 of the molar value. Calls of active or inactive are those of the source. The calls are words filed in the database; no cut-off is given here.
# Key:
# [1] = biological target: T1, Orexin/Hypocretin receptor type 1 (Homo sapiens, UniProt O43613); assay: (§1) Antagonist activity at human OX1R expressed in CHOK1 cells assessed as inhibition of orexin A-induced intracellular Ca2+ release preincubated for 15 mins followed by orexin A addition by Fura 2-AM dye based fluorescence assay; assay type: functional, cell-based
# T1 sequence (O43613 whole entry): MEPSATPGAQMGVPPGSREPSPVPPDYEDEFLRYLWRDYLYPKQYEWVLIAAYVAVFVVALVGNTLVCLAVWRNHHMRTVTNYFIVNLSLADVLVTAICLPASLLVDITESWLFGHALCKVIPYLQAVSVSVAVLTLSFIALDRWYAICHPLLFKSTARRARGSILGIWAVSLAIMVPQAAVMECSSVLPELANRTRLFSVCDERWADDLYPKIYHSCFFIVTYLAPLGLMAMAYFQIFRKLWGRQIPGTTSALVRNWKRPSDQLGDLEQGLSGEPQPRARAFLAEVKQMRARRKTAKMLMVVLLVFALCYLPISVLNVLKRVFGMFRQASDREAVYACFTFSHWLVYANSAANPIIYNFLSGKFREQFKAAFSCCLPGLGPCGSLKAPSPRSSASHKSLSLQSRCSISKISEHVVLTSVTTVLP
# Orexin receptor type 2 = biological target: T2, Orexin receptor type 2 (Homo sapiens, UniProt O43614); assay: Antagonist activity at human OX2R expressed in CHOK1 cells assessed as inhibition of orexin A-induced intracellular Ca2+ release preincubated for 15 mins followed by orexin A addition by Fura 2-AM dye based fluorescence assay; assay type: functional, cell-based
# T2 sequence (O43614 whole entry): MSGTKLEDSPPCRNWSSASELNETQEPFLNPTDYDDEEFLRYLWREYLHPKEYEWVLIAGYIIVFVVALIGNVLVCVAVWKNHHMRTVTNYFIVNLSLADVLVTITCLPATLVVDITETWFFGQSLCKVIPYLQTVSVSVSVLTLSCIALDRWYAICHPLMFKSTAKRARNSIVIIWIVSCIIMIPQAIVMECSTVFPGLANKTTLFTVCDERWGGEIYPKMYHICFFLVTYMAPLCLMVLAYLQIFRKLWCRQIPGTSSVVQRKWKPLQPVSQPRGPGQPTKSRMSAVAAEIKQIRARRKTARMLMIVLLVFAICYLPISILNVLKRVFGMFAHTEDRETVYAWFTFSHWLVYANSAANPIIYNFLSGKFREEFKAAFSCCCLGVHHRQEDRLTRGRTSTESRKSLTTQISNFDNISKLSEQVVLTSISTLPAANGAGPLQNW
# [2] = biological target: T3, Orexin/Hypocretin receptor type 1 (Homo sapiens) (UniProt O43613); assay: as §1; assay type: functional, cell-based
# T3 sequence (whole entry): T1 sequence (O43613 whole entry)
# Homo sapiens = species: Homo sapiens; assay: Selectivity ratio of Ki for human OX2R to Ki for human OX1R
SMILES,pKi [1],pIC50 (Orexin receptor type 2),further results
COc1ccc2c3c1O[C@H]1[C@@H](N(C)C(=O)/C=C/c4ccoc4)CC[C@@]4(O)[C@@H](C2)N(S(=O)(=O)c2ccccc2)CC[C@]314,6.07,< 5.00,–
CN(C(=O)/C=C/c1ccoc1)[C@@H]1CC[C@@]2(O)[C@H]3Cc4cccc5c4[C@@]2(CCN3S(=O)(=O)c2ccccc2)[C@H]1O5,–,≤ 5.00,pIC50 [1]: 5.72
CN(C(=O)/C=C/c1ccoc1)[C@@H]1CC[C@@]2(O)[C@H]3Cc4ccc(OCc5ccccc5)c5c4[C@@]2(CCN3S(=O)(=O)c2ccccc2)[C@H]1O5,–,–,inhibition [2]: inactive
COc1ccc2c(c1)[C@]13CCN(S(=O)(=O)c4ccccc4)[C@H](C2)[C@]1(O)CC[C@H](N(C)C(=O)/C=C/c1ccoc1)C3,7.95,–,pKi (Orexin receptor type 2): 6.53; Ratio Ki (Homo sapiens): 26.1
COc1ccc2c(c1)[C@]13CCN(S(=O)(=O)c4ccccc4)[C@H](C2)[C@]1(O)CC[C@@H](N(C)C(=O)/C=C/c1ccoc1)C3,7.50,< 5.00,–
COc1ccc2c3c1O[C@H]1[C@H](N(C)C(=O)/C=C/c4ccoc4)CC[C@@]4(O)[C@@H](C2)N(S(=O)(=O)c2ccccc2)CC[C@]314,–,< 5.00,–
